Consider 14 molecules from patent US12161722B2, “Bifunctional heterocyclic compound having BTK degradation function via ubiquitin proteasome pathway, and use thereof” (KOREA RESEARCH INSTITUTE OF CHEMICAL TECHNOLOGY, priority 2021, dated 2024).

Molecules are shown by their SMILES.

The target of the test is T1, WT BTK protein (Homo sapiens, UniProt Q06187).
T1 construct: measured for intracellular BTK protein levels by Western blotting; endogenous in cells; host or cells: TMD-8 or RAMOS cells
T1 sequence (Q06187 whole entry): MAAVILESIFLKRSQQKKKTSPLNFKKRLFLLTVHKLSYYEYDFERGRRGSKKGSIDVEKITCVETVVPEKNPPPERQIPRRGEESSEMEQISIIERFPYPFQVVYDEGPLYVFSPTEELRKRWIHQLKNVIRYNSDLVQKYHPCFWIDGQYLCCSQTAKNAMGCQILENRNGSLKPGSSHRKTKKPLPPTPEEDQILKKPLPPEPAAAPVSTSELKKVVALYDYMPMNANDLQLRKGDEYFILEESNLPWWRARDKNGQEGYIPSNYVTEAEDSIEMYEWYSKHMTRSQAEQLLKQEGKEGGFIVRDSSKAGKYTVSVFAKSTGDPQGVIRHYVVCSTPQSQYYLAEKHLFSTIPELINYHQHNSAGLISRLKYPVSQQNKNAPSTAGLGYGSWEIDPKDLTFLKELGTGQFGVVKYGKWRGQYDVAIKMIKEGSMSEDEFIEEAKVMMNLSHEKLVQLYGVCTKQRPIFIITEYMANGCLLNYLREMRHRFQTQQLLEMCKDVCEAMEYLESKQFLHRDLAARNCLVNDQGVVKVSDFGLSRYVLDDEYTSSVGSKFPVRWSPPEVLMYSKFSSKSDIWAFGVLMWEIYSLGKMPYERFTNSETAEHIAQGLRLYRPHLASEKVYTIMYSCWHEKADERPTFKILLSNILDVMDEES
Put plainly: BTK protein degradation assay (Western blotting), WT BTK. The test is classed as cell-based. The conditions noted are these: concentration range accounting for 50% degradation of WT BTK protein, TMD-8 or RAMOS cells, 24 hours. In outline:
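BTK levels were read by Western blotting (GAPDH and β-actin normalisers) in RIPA lysates of TMD-8 cells exposed to compounds for 24 h at 1×10^6 cells/mL. Results scored in ranges of the concentration producing 50% loss of WT BTK.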
As to `Cc1cccc(C)c1Nc1nn(C)c2nc(Nc3ccc4c(c3)CN(C(=O)C3CC5(CCN(c6ccc7c(c6)C(=O)N(C6CCC(=O)NC6=O)C7=O)CC5)C3)CC4)ncc12` (centres unmarked) [Compound 124, 5-(2-(7-((3-((2,6-dimethylphenyl)amino)-1-methyl-1H-pyrazolo[3,4-d]pyrimidin-6-yl)amino)-1,2,3,4-tetrahydroisoquinoline-2-carbonyl)-7-azaspiro[3.5]nonan-7-yl)-2-(2,6-dioxopiperidin-3-yl)isoindoline-1,3-dione], the DC50 lay within 0.1 to 10 nM.
Regarding `Cc1cccc(C)c1Nc1nn(C)c2nc(Nc3ccc4c(c3)CN(C(=O)CC3CCN(c5ccc6c(c5)C(=O)N(C5CCC(=O)NC5=O)C6=O)CC3)CC4)ncc12` (centres unmarked) [Compound 125, 5-(4-(2-(7-((3-((2,6-Dimethylphenyl)amino)-1-methyl-1H-pyrazolo[3,4-d]pyrimidin-6-yl)amino)-3,4-dihydroisoquinolin-2 (1H)-yl)-2-oxoethyl)piperidin-1-yl)-2-(2,6-dioxopiperidin-3-yl)isoindoline-1,3-dione], the DC50 is 0.1 to 10 nM.
With `Cc1cccc(C)c1Nc1nn(C)c2nc(Nc3ccc4c(c3)CN(C(=O)CCC3CCN(c5ccc6c(c5)C(=O)N(C5CCC(=O)NC5=O)C6=O)CC3)CC4)ncc12` (centres unmarked) [Compound 126, 5-(4-(3-(7-((3-((2,6-Dimethylphenyl)amino)-1-methyl-1H-pyrazolo[3,4-d]pyrimidin-6-yl)amino)-3,4-dihydroisoquinolin-2 (1H)-yl)-3-oxopropyl)piperidin-1-yl)-2-(2,6-dioxopiperidin-3-yl)isoindoline-1,3-dione], the DC50 is 0.1 to 10 nM.
Consider `Cc1cccc(C)c1Nc1nn(C)c2nc(Nc3ccc4c(c3)CN(C(=O)COC3CCN(c5ccc6c(c5)C(=O)N(C5CCC(=O)NC5=O)C6=O)CC3)CC4)ncc12` (centres unmarked) [Compound 127, 5-(4-(2-(7-((3-((2,6-Dimethylphenyl)amino)-1-methyl-1H-pyrazolo[3,4-d]pyrimidin-6-yl)amino)-3,4-dihydroisoquinolin-2 (1H)-yl)-2-oxoethoxy)piperidin-1-yl)-2-(2,6-dioxopiperidin-3-yl)isoindoline-1,3-dione], for which the DC50 fell in the range of 0.1 to 10 nM.
Take `Cc1cccc(C)c1Nc1nn(C)c2nc(Nc3ccc4c(c3)CN(C(=O)[C@H]3CC[C@H](OC5CCN(c6ccc7c(c6)C(=O)N(C6CCC(=O)NC6=O)C7=O)CC5)CC3)CC4)ncc12` (some centres unmarked) [Compound 128, 5-(4-(((1r,4r)-4-(7-((3-((2,6-dimethylphenyl)amino)-1-methyl-H-pyrazolo[3,4-d]pyrimidin-6-yl)amino)-1,2,3,4-tetrahydroisoquinoline-2-carbonyl)cyclohexyl)oxy)piperidin-1-yl)-2-(2,6-dioxopiperidin-3-yl)isoindoline-1,3-dione]: the DC50 lay in the range of 0.1 to 10 nM.
Consider `Cc1cccc(C)c1Nc1nn(C)c2nc(Nc3ccc4c(c3)CN(C(=O)CC3(O)CCN(c5ccc6c(c5)C(=O)N(C5CCC(=O)NC5=O)C6=O)CC3)CC4)ncc12` (centres unmarked) [Compound 129, 5-(4-(2-(7-((3-((2,6-dimethylphenyl)amino)-1-methyl-1H-pyrazolo[3,4-d]pyrimidin-6-yl)amino)-3,4-dihydroisoquinolin-2 (1H)-yl)-2-oxoethyl)-4-hydroxypiperidin-1-yl)-2-(2,6-dioxopiperidin-3-yl)isoindoline-1,3-dione], for which the DC50 is 0.1 to 10 nM.
In the case of `Cc1cccc(C)c1Nc1nn(C)c2nc(Nc3ccc4c(c3)CN(CC3(O)CCN(c5ccc6c(c5)C(=O)N(C5CCC(=O)NC5=O)C6=O)CC3)CC4)ncc12` (centres unmarked) [Compound 130, 5-(4-((7-((3-((2,6-dimethylphenyl)amino)-1-methyl-1H-pyrazolo[3,4-d]pyrimidin-6-yl)amino)-3,4-dihydroisoquinolin-2 (1H)-yl)methyl)-4-hydroxypiperidin-1-yl)-2-(2,6-dioxopiperidin-3-yl)isoindoline-1,3-dione] it was 0.1 to 10 nM; in that of `Cc1cccc(C)c1Nc1nn(C)c2nc(Nc3ccc4c(c3)CN(CCC3(O)CCN(c5ccc6c(c5)C(=O)N(C5CCC(=O)NC5=O)C6=O)CC3)CC4)ncc12` (centres unmarked) [Compound 131, 5-(4-(2-(7-((3-((2,6-Dimethylphenyl)amino)-1-methyl-1H-pyrazolo[3,4-d]pyrimidin-6-yl)amino)-3,4-dihydroisoquinolin-2 (1H)-yl)ethyl)-4-hydroxypiperidin-1-yl)-2-(2,6-dioxopiperidin-3-yl)isoindoline-1,3-dione], 0.1 to 10 nM.
In the case of `Cc1cccc(C)c1Nc1nn(C)c2nc(Nc3ccc4c(c3)CN(CC3CCN(c5ccc6c(n5)CN(C5CCC(=O)NC5=O)C6=O)CC3)CC4)ncc12` (centres unmarked) [Compound 132, 3-(2-(4-((7-((3-((2,6-dimethylphenyl)amino)-1-methyl-1H-pyrazolo[3,4-d]pyrimidin-6-yl)amino)-3,4-dihydroisoquinolin-2 (1H)-yl)methyl)piperidin-1-yl)-5-oxo-5,7-dihydro-6H-pyrrolo[3,4-b]pyridin-6-yl)piperidin-2,6-one], the DC50 fell in the range of 0.1 to 10 nM.
As to `Cc1cccc(C)c1Nc1nn(C)c2nc(Nc3ccc4c(c3)CN(CC3(O)CCN(c5ccc6c(n5)CN(C5CCC(=O)NC5=O)C6=O)CC3)CC4)ncc12` (centres unmarked) [Compound 133, 3-(2-(4-((7-((3-((2,6-Dimethylphenyl)amino)-1-methyl-1H-pyrazolo[3,4-d]pyrimidin-6-yl)amino)-3,4-dihydroisoquinolin-2 (1H)-yl)methyl)-4-hydroxypiperidin-1-yl)-5-oxo-5,7-dihydro-6H-pyrrolo[3,4-b]pyridin-6-yl)piperidin-2,6-one], the DC50 was in the range of 0.1 to 10 nM.
Regarding `Cc1cccc(C)c1Nc1nn(C)c2nc(Nc3ccc(N4CCN(CC5CCN(c6ccc7c(c6)C(=O)N(C6CCC(=O)NC6=O)C7=O)CC5)CC4)nc3)ncc12` (centres unmarked) [Compound 134, 5-(4-((4-(5-((3-((2,6-Dimethylphenyl)amino)-1-methyl-1H-pyrazolo[3,4-d]pyrimidin-6-yl)amino)pyridin-2-yl)piperazin-1-yl)methyl)piperidin-1-yl)-2-(2,6-dioxopiperidin-3-yl)isoindoline-1,3-dione], the DC50 is 0.1 to 10 nM.
The figure for `Cc1cccc(C)c1Nc1nn(C)c2nc(Nc3ccc(N4CCC(CN5CCN(c6ccc7c(c6)C(=O)N(C6CCC(=O)NC6=O)C7=O)CC5)CC4)nc3)ncc12` (centres unmarked) [Compound 135, 5-(4-((1-(5-((3-((2,6-Dimethylphenyl)amino)-1-methyl-1H-pyrazolo[3,4-d]pyrimidin-6-yl)amino)pyridin-2-yl)piperidin-4-yl)methyl)piperazin-1-yl)-2-(2,6-dioxopiperidin-3-yl)isoindoline-1,3-dione] is 0.1 to 10 nM; for `Cc1cccc(C)c1Nc1nn(C)c2nc(Nc3cccc(N4CCN(CC5CCN(c6ccc7c(c6)C(=O)N(C6CCC(=O)NC6=O)C7=O)CC5)CC4)c3)ncc12` (centres unmarked) [Compound 136, 5-(4-((4-(3-((3-((2,6-dimethylphenyl)amino)-1-methyl-1H-pyrazolo[3,4-d]pyrimidin-6-yl)amino)phenyl)piperazin-1-yl)methyl)piperidin-1-yl)-2-(2,6-dioxopiperidin-3-yl)isoindoline-1,3-dione] it is 0.1 to 10 nM.
Consider `Cc1cccc(C)c1Nc1nn(C)c2nc(Nc3ccc4c(c3)CN(CC3CCN(c5ccc(C(=O)NC6CCC(=O)NC6=O)nc5)CC3)CC4)ncc12` (centres unmarked) [Compound 137, 5-(4-((7-((3-((2,6-Dimethylphenyl)amino)-1-methyl-1H-pyrazolo[3,4-d]pyrimidin-6-yl)amino)-3,4-dihydroisoquinolin-2 (1H)-yl)methyl)piperidin-1-yl)-N-(2,6-dioxopiperidin-3-yl)picolinamide], for which the DC50 fell in the range of 0.1 to 10 nM.
